Measured values published in patent US10562863B2, “Heterobifunctional linker” (THE GOVERNORS OF THE UNIVERSITY OF ALBERTA, priority 2016, dated 2020).

What follows are compounds tested against T1, branched-chain amino acid-binding protein LivF (Escherichia coli, UniProt P0AD96) (assay: Competitive lateral flow assay, LivF test band). Settings: free Leu 0.5 and 2 mg/ml; 1M urea; citrate 2 mg/ml.
T1 construct: inferred from the pET15b vector and Ni-NTA purification; made in house; host or cells: E. coli BL21
Design: species or system E. coli
Description: We generated a useful metabolite sensor using a combination of a lateral flow assay (LFA), a metabolite-L1-AuNP conjugate (Leucine) and metabolite-specific protein. […] In our assay, the branched-chain amino acid-binding protein LivF35 was loaded onto nitrocellulose strips as the detection protein (“Test band”) and as the “Control band” the glutamate/aspartate binding protein Gltl36 was used, since the gold nanoparticles are stabilized with glutamate on their surface and that can be detected by Gltl as flow control. Leucine-decorated gold nanoparticles were loaded at the end of the strip in solution, with or without competing free leucine and the flow assay was performed.
To prepare the LFA strips, lug of each protein (from a 0.5 ug/ul solution in 50 mM phosphate buffer, pH 7.5) was loaded onto FF80 nitrocellulose strips as a 0.5 cm line. 20 ul of a suspension of metabolite-coated AuNPs (3 mg/mL) was loaded onto the end of the membrane strips and allowed to flow through via capillary action. Bands showing the captured gold nanoparticles were documented with an electronic flatbed scanner (Canon Canoscan 5600).

T1 sequence (P0AD96 24-367): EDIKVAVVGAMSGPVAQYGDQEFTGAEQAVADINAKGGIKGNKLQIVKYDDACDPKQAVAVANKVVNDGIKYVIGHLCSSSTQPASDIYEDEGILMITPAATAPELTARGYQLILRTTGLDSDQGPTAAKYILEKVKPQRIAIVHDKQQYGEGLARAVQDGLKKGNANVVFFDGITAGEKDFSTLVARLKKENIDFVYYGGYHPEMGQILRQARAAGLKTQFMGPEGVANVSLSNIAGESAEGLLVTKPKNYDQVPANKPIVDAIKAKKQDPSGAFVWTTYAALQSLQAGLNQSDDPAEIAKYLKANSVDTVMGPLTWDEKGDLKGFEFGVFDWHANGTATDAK

Row | Compound | Effect of free metabolite on LivF detection of leucine-coated AuNP
1 | O=C(O)CC(O)(CC(=O)O)C(=O)O [citrate] | not hampered
2 | CC(C)C[C@H](N)C(=O)O [free leucine, leucine] | abrogated
3 | NC(N)=O [urea] | not hampered
